Reference: ChEMBL document CHEMBL1138501, “Structure-guided design, synthesis, and evaluation of salicylic acid-based inhibitors targeting a selectivity pocket in the active site of human 20alpha-hydroxysteroid dehydrogenase (AKR1C1)” (J Med Chem, 2009)

How the values were obtained:
[1] = biological target: T1, Aldo-keto reductase family 1 member C1 (Homo sapiens, UniProt Q04828); experiment: Inhibition of 20-alpha HSD
T1 sequence (Q04828 whole entry): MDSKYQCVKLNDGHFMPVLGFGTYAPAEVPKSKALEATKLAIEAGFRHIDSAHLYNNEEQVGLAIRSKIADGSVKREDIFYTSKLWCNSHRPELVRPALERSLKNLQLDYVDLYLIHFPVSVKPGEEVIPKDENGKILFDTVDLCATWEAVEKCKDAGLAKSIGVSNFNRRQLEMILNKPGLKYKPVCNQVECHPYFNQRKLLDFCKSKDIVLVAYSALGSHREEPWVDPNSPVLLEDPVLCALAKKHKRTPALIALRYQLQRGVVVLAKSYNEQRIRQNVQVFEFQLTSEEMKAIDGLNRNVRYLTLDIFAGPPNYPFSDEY

[2] = biological target: T1, Aldo-keto reductase family 1 member C1
Description: Inhibition of human recombinant 20-alpha HSD expressed in Escherichia coli JM109

[3] = biological target: T2, Aldo-keto reductase family 1 member C4 (Homo sapiens, UniProt P17516); experiment: Inhibition of human recombinant type 1 3-alpha-HSD expressed in Escherichia coli JM109
T2 sequence (P17516 whole entry): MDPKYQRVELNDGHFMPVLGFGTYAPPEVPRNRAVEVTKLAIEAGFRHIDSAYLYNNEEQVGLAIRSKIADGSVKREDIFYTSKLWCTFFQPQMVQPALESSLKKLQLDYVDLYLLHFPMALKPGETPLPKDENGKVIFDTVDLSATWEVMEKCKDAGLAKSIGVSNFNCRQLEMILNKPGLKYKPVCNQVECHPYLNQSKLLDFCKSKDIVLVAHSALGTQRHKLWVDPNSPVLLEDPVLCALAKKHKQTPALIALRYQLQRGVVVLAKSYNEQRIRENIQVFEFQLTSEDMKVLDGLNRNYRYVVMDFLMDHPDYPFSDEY

[4] = biological target: T3, Aldo-keto reductase family 1 member C3 (Homo sapiens, UniProt P42330); experiment: Inhibition of human recombinant type 2 3-alpha-HSD expressed in Escherichia coli JM109
T3 sequence (P42330 whole entry): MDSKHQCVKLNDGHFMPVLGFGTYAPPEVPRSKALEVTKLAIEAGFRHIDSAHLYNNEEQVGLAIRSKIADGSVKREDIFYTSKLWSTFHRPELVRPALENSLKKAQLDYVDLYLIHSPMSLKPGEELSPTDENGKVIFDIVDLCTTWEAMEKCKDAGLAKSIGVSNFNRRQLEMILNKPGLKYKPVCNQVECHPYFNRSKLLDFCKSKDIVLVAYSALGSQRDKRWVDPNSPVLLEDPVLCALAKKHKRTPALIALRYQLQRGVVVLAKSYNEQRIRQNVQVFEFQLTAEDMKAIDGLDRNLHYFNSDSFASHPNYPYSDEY

[5] = biological target: T4, Aldo-keto reductase family 1 member C1 (Homo sapiens) (UniProt Q04828); details: 10 uM
T4 sequence (whole entry): T1 sequence (Q04828 whole entry)

[6] = Cytotoxicity against BAEC assessed as cell viability at 10 uM; assay type: cell-based, Bos taurus; details: cattle

Row | Structure (SMILES) | IC50 [1] [µM] | Ki [2] [µM] | Ki [3] | Ki [4] [µM] | inhibition [5] [%] | Activity [6] | Ki ([3]; read-out: Ki) [µM]
1 | CCc1oc2ccccc2c1C(=O)c1cc(Br)c(O)c(Br)c1 [BENZBROMARONE] | 0.048 | – | – | – | – | – | –
2 | O=C(O)c1cc(Br)cc(-c2ccccc2)c1O | – | 0.14 | Not Active | 21 | 40 | Non-toxic | –
3 | O=C(O)c1cc(Br)cc(Br)c1O | – | – | – | 23 | – | Non-toxic | 45.7
4 | O=C(O)c1cc(-c2ccccc2)cc(Br)c1O | – | – | – | 4.2 | – | Non-toxic | 18.2
5 | O=C1OC(c2cc(Br)c(O)c(Br)c2)(c2cc(Br)c(O)c(Br)c2)c2ccccc21 | 0.033 | – | – | – | – | – | –
